# Results taken from patent publication US20260035452A1 (THE UNIVERSITY OF BIRMINGHAM, priority 2022, published 2026).
# No end group written: not given here.
# Assays:
# [1] = system: NIH-3T3 mouse embryonic fibroblast cells; assay: IL-6 secretion by NIH-3T3 fibroblasts (Elisa); type: cell-based; conditions: NIH-3T3 cells, 50 ng/ml, vs control / IL-17 group
# Method: FIG. 2: NIH-3T3 mouse embryonic fibroblast cells were treated with IL-17 vehicle (Ctrl), IL-17 (50 ng/ml) alone (IL-17) or peptide (FM-0410) (50 ng/ml) and supernatants were assayed by Elisa for IL-6. Data were expressed as pg/ml and presented as means±S.D. of three separate independent experiments. Statistical analysis was conducted by one-way ANOVA followed by Bonferroni's for multiple comparisons. ^##P≤0.01, ^###P≤0.005 vs Ctrl group; *P≤0.05 vs IL-17 group. In order to assess the biological activity of synthesized peptide, we carried out in vitro studies using NIH-3T3 mouse embryonic fibroblast cells. […] With this in vitro system we measured IL-17 activity by its ability to induce IL-6 secretion by NIH-3T3 mouse embryonic fibroblast cells. Methods: The levels of IL-6 in the cellular and air pouch inflammatory supernatants at 24 h were measured using commercially available enzyme-linked immunosorbent assay kit (ELISA kit, R&D System, Milan, Italy) according to the manufacturer instructions. […] The addition of 100 μl of the substrate and stop solution represented the last steps before the reading of absorbance (measured at 450 nm) on a microplate reader. Antigen levels in the samples were determined using a standard curve and expressed as pg/ml. […]
# dorsal air pouch of mice = assay: In vivo air pouch model; conditions: 1 μg/mice into air pouch, 24 h
# Method: FIG. 3: Mice were treated with IL-17 vehicle (Ctrl), IL-17 (1 μg/mice) alone (IL-17) or peptide (FM-0410) (1 μg/mice) and thereafter total cell number from pouches inflammatory exudates was evaluated at 24 h. Data were expressed as millions of cells for pouch and presented as means±S.D. of n=7 mice per group. Statistical analysis was conducted by one-way ANOVA followed by Bonferroni's for multiple comparisons. ^##P≤0.01, ^###P≤0.005 vs Ctrl group; *P≤0.05 vs IL-17 group.
# FIG. 4: Inflammatory supernatants obtained from the pouch cavities were assayed using a Proteome Profiler Cytokine Array for Ctrl, IL-17 and FM-0410 experimental group. Densitometric analysis is presented as heatmap. Data (expressed as INT/mm2) are presented as means±S.D. of positive spots of three independent experiments run each with n=7 mice per group.
# FIG. 5: Mice were treated with IL-17 vehicle (Ctrl), IL-17 (1 μg/mice), or peptide (FM-0410) (1 μg/mice) and inflammatory fluids were assayed by Elisa for IL-6. Data were expressed as pg/ml and presented as means±S.D. of n=7 mice per group. Statistical analysis was conducted by one-way ANOVA followed by Bonferroni's for multiple comparisons. ^##P≤0.01 vs CTRL group. […]
# Specifically, dorsal air pouches were prepared by injection of 2.5 ml of air on day 0 and day 3 as previously described (Maione et al., 2009). […] Inflammatory exudates were collected and measured to evaluate the level of inflammatory cyto-chemokines. Cell number was determined by TC20 automated cell counter (Bio-Rad, Milan, Italy) using Bio-Rad's TC20 automated cell counter uses disposable slides, TC20 trypan blue dye (0.4% trypan blue dye w/v in 0.81% sodium chloride and 0.06% potassium phosphate dibasic solution) and a CCD camera to count cells based on the analyses of capture images (Maione et al., 2018).
# Methods: The levels of IL-6 in the cellular and air pouch inflammatory supernatants at 24 h were measured using commercially available enzyme-linked immunosorbent assay kit (ELISA kit, R&D System, Milan, Italy) according to the manufacturer instructions. […]
substance,measurement,setting,value
Ac-LEKILVSVGATAVTPIVHHVAC [FM-0410],IL-6 release,[1],"significant, and more abundant, release of IL-6 compared to IL-17-treated group"
same,cyto-chemokines profile of pouch fluid (Proteome Profiler Cytokine Array),dorsal air pouch of mice,selective upregulation in a range of mediators
same,level of IL-6 in pouch fluids,dorsal air pouch of mice,increased level of IL-6 compared to control group
same,number of inflammatory leukocytes (total cell number from pouch exudates),dorsal air pouch of mice,marked increase in inflammatory infiltrates compared to control but also to IL-17-treated mice
